Like-named read-outs stand apart in the source and are kept apart here.

The source of these data is patent US11072602B2, “Antidiabetic heterocyclic compounds” (Merck Sharp & Dohme Corp., priority 2016, dated 2021).

The assay addresses T1, human GPR40 (Homo sapiens, UniProt O14842).
T1 construct: expressed in transfected cells
Nature of the assay: Inositol Phosphate Turnover (IP1) Assay 2. The class given is cell-based. As for the experimental part: Human GPR40 stable cell-lines were generated in HEK cells. The expression plasmids were transfected using lipofectamine (Life Technologies) following manufacturer's instructions. Stable cell-lines were generated following drug selection and single cell cloning.
The assay is performed in 384-well format. HEK cells stably expressing human GPR40 are plated at 15,000 cells per well in growth medium (DMEM/10% fetal calf serum). Cell plates are then incubated 16 hours at 37 degrees in a 5% CO2 incubator.
Measurement of Inositol Phosphate Turnover (IP1) is performed using the CisBio IP-One kit (Part number 62IPAPEB). After the 16 hour incubation, the cells are washed with HEPES buffer and 10 ul of stimulation buffer (prepared as described in the kit) is added to each well. In a separate plate, compounds are diluted in DMSO (400-fold over the final concentration in the assay well) and 25 nl is acoustically transferred to the appropriate well in the assay cell plate. The plates are then incubated for 60 minutes at 37 degrees. 10 ul of detection buffer (also prepared as described in the IP-One kit) is added to each well and the plates are incubated for 60 minutes in the dark. The plates are then read in a Perkin Elmer EnVision or equivalent reader able to measure FRET. Fluorescent ratio of emission at 665 and 620 nm is then converted to IP1 concentration by back calculating from an IP1 standard curve prepared at the time of the assay.

[1] abbreviates: HEK cells stably expressing human GPR40, 15,000 cells per well, CisBio IP-One kit, read-out: Human IP1 (nM), Inositol Phophate Turnover (IP1) Assay 2 EC50 values.
[2] abbreviates: HEK cells stably expressing human GPR40, read-out: EC50 values in the Inositol Phophate Turnover (IP1) Assay 2.

T1 sequence (O14842 whole entry): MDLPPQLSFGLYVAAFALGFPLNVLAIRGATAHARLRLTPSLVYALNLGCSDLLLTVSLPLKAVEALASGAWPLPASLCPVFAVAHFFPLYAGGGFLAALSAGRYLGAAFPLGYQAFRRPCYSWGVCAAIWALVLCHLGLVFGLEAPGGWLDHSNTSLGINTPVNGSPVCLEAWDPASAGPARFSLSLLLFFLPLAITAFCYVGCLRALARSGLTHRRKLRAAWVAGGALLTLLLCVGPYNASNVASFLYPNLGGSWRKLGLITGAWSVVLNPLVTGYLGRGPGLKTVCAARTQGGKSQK

Consider `C[C@H](C(=O)O)[C@H](c1ccc2c(c1)OC(C1CC3(C1)CN(c1ncccc1C(F)(F)F)C3)CC2)C1CC1` (single isomer, unassigned) [Example 1, (2S,3R)-3-cyclopropyl-2-methyl-3-((R or S)-2-(2-(3-(trifluoro-methyl)pyridin-2-yl)-2-azaspiro[3.3]heptan-6-yl)chroman-7-yl)propanoic Acid], for which the EC50 was 141 nM under setting [1] and under 6500 nM under setting [2]. For the compound `C[C@H](C(=O)O)[C@H](c1ccc2c(c1)OC(C1CC3(C1)CN(c1ncccc1C(F)(F)F)C3)CC2)C1CC1` (single isomer, unassigned) [Example 2, (2S,3R)-3-cyclopropyl-2-methyl-3-((R or S)-2-(2-(3-(trifluoromethyl)pyridin-2-yl)-2-azaspiro[3.3]heptan-6-yl)chroman-7-yl)propanoic Acid], the EC50 under setting [1] was determined as 156 nM. In the case of `C[C@H](C(=O)O)[C@H](c1ccc2c(c1)OC(C1[C@@H]3COC[C@H]1CN(Cc1cc(C(F)(F)F)ccc1C(F)(F)F)C3)CC2)C1CC1` (stereo partly drawn) [Example 40, (2S,3R)-3-(2-((1R,5S)-7-(2,5-bis(trifluoromethyl)benzyl)-3-oxa-7-azabicyclo[3.3.1]nonan-9-yl)chroman-7-yl)-3-cyclopropyl-2-methylpropanoic acid], the EC50 by setting is: under setting [1], 38.5 nM; under setting [2], under 6500 nM.
